{
  "source": "patent US5270204A",
  "about": "“Covalent angiogenin/RNase hybrids” (The President and Fellows of Harvard College, priority 1992, dated 1993)",
  "molecules": {"B1": {"name": "ARH-III, angiogenin/RNase hybrid: human angiogenin with residues 8-22 replaced by residues 7-21 of bovine pancreatic RNase A (Homo sapiens) (protein)", "chain": "QDNSRYTKFERQHMDSSTSAASDRYCESIMRRRGLTSPCKDINTFIHGNKRSIKAICENKNGNPHRENLRISKSSFQVTTCKLHGGSPWPPCQYRATAGFRNVVVACENGLPVHLDQSIFRRP", "notes": "the coding region for Met-(-1) through Asn-3; fragment C consisted of the coding region from Arg-24 through Pro-123; made in house; host or cells: E. coli W3110 (plasmid pARH-III)"}},
  "key": {"[1]": {"biological_target": "T1, bovine pancreatic RNase A (Bos taurus, UniProt P61823)", "T1 sequence (P61823 27-150)": "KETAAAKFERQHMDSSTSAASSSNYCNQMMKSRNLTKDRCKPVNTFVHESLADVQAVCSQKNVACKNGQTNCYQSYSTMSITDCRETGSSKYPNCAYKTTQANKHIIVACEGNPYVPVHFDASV", "conditions": "spectrophotometric assay, 30 mM Mes, 30 mM NaCl, pH 6.0 at 25° C.; cited from earlier work"}, "[2]": {"biological_target": "human angiogenin, wild type (Homo sapiens, UniProt P03950)", "sequence (P03950 25-147)": "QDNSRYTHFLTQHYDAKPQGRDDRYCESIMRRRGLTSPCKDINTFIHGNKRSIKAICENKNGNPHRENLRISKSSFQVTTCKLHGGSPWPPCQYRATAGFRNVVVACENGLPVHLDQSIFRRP", "conditions": "30 mM Mes, 30 mM NaCl, pH 6.0 at 37° C.; cited from earlier work"}, "[3]": {"substrate": "Nc1ccn([C@@H]2O[C@H](CO)[C@@H](OP(=O)(O)OC[C@H]3O[C@@H](n4cnc5c(N)ncnc54)[C@H](O)[C@@H]3O)[C@H]2O)c(=O)n1", "assay": "Activity toward dinucleotide (3',5') phosphates, HPLC quantitation method", "format": "biochemical, human", "conditions": "other: ARH-III, 30 mM Mes, 30 mM NaCl, pH 6.0 at 37° C., 0.1 mM substrate, 2.8 μM ARH-III", "experimental": "(§1) Activity toward dinucleotide (3', 5') phosphates was determined by an HPLC quantitation method as described by Shapiro et al., 1988, Anal. Biochem. 175: 450-461; Harper and Vallee, 1989, Biochemistry 28: 1875-1884. Reaction mixtures (30 μL) contained 0.1 mM substrate, 2.8 μM ARH-III and were incubated for 4-24 hours at 37° C.\n(§2) The enzymatic activities of ARH-III toward tRNA, 18S and 28S rRNA, and dinucleotide substrates were very similar to those of angiogenin. […] Angiogenin and RNase A (obtained from Cooper Biochemicals) had maximal activities under these assay conditions at pH ~6.8 and ~8.1, respectively, consistent with previous results obtained by Lee & Vallee, 1989b, Biochem. and Biophys. Res. Commun. 161: 121-126. It is known that angiogenin catalyzes the cleavage of dinucleotide substrates, but at rates 5-6 orders of magnitude lower than those observed for RNase A (Shapiro et al., 1988, Anal. Biochem. 175: 450-461; Harper & Vallee, 1989, Biochemistry 28: 1875-1884). Its specificity is different from that of RNase A based on kcat /Km values for 4 different dinucleotides. In all cases, kcat /Km values were within 30% of those observed for angiogenin, and the relative specificity for the substrates was unchanged.\n(§3) ^a Assays with ARHIII and angiogenin were performed in 30 mM Mes, 30\n(§4) mM NaCl, pH 6.0 at 37° C."}, "[4]": {"substrate": "Nc1ccn([C@@H]2O[C@H](CO)[C@@H](OP(=O)(O)OC[C@H]3O[C@@H](n4cnc5c(=O)[nH]c(N)nc54)[C@H](O)[C@@H]3O)[C@H]2O)c(=O)n1", "assay": "Activity toward dinucleotide (3',5') phosphates, HPLC quantitation method", "format": "biochemical, human", "conditions": "other: ARH-III, 30 mM Mes, 30 mM NaCl, pH 6.0 at 37° C., 0.1 mM substrate, 2.8 μM ARH-III", "experimental": "as §1, §2, §3, §4"}, "[5]": {"substrate": "Nc1ncnc2c1ncn2[C@@H]1O[C@H](COP(=O)(O)O[C@H]2[C@@H](O)[C@H](n3ccc(=O)[nH]c3=O)O[C@@H]2CO)[C@@H](O)[C@H]1O", "assay": "Activity toward dinucleotide (3',5') phosphates, HPLC quantitation method", "format": "biochemical, human", "conditions": "other: ARH-III, 30 mM Mes, 30 mM NaCl, pH 6.0 at 37° C., 0.1 mM substrate, 2.8 μM ARH-III", "experimental": "as §1, §2, §3, §4"}, "[6]": {"substrate": "Nc1nc2c(ncn2[C@@H]2O[C@H](COP(=O)(O)O[C@H]3[C@@H](O)[C@H](n4ccc(=O)[nH]c4=O)O[C@@H]3CO)[C@@H](O)[C@H]2O)c(=O)[nH]1", "assay": "Activity toward dinucleotide (3',5') phosphates, HPLC quantitation method", "format": "biochemical, human", "conditions": "other: ARH-III, 30 mM Mes, 30 mM NaCl, pH 6.0 at 37° C., 0.1 mM substrate, 2.8 μM ARH-III", "experimental": "as §1, §2, §3, §4"}},
  "data": [
    {"molecule": "Nc1ccn([C@@H]2O[C@H](CO)[C@@H](OP(=O)(O)OC[C@H]3O[C@@H](n4cnc5c(=O)[nH]c(N)nc54)[C@H](O)[C@@H]3O)[C@H]2O)c(=O)n1", "note": "[CpG, cytidylyl-(3'-5') guanosine]", "values": [
      {"measurement": "kcat/Km", "setting": "[1]", "result": 510000, "unit": "M⁻¹ s⁻¹"},
      {"measurement": "kcat/Km", "setting": "[2]", "result": 4.0, "unit": "M⁻¹ s⁻¹"}
    ]},
    {"molecule": "Nc1nc2c(ncn2[C@@H]2O[C@H](COP(=O)(O)O[C@H]3[C@@H](O)[C@H](n4ccc(=O)[nH]c4=O)O[C@@H]3CO)[C@@H](O)[C@H]2O)c(=O)[nH]1", "note": "[UpG, uridylyl-(3'-5') guanosine]", "values": [
      {"measurement": "kcat/Km", "setting": "[1]", "result": 180000, "unit": "M⁻¹ s⁻¹"},
      {"measurement": "kcat/Km", "setting": "[2]", "result": 0.4, "unit": "M⁻¹ s⁻¹"}
    ]},
    {"molecule": "Nc1ccn([C@@H]2O[C@H](CO)[C@@H](OP(=O)(O)OC[C@H]3O[C@@H](n4cnc5c(N)ncnc54)[C@H](O)[C@@H]3O)[C@H]2O)c(=O)n1", "note": "[CpA, cytidylyl-(3'-5') adenosine]", "values": [
      {"measurement": "kcat/Km", "setting": "[1]", "result": "6e+06", "unit": "M⁻¹ s⁻¹"},
      {"measurement": "kcat/Km", "setting": "[2]", "result": 12, "unit": "M⁻¹ s⁻¹"}
    ]},
    {"molecule": "Nc1ncnc2c1ncn2[C@@H]1O[C@H](COP(=O)(O)O[C@H]2[C@@H](O)[C@H](n3ccc(=O)[nH]c3=O)O[C@@H]2CO)[C@@H](O)[C@H]1O", "note": "[UpA, uridylyl-(3'-5') adenosine]", "values": [
      {"measurement": "kcat/Km", "setting": "[1]", "result": "4e+06", "unit": "M⁻¹ s⁻¹"},
      {"measurement": "kcat/Km", "setting": "[2]", "result": 1.1, "unit": "M⁻¹ s⁻¹"}
    ]},
    {"molecule": "B1", "values": [
      {"measurement": "kcat/Km", "setting": "[3]", "result": 13, "unit": "M⁻¹ s⁻¹"},
      {"measurement": "kcat/Km", "setting": "[4]", "result": 3.4, "unit": "M⁻¹ s⁻¹"},
      {"measurement": "kcat/Km", "setting": "[5]", "result": 0.8, "unit": "M⁻¹ s⁻¹"},
      {"measurement": "kcat/Km", "setting": "[6]", "result": 0.4, "unit": "M⁻¹ s⁻¹"}
    ]}
  ]
}
